Results: US20100331189A1, “Plant Growth Promoter Utilizing Potato Cyst Nematode” (TOKAI UNIVERSITY EDUCATIONAL SYSTEM, priority 2008, published 2010)

Legend:
[1] = test system: beets; test: Beet cultivation in PCN-contaminated farmland after spraying around the roots (2007); type: in vivo; details: cultivated 112 days; for Average weight of three beets other than the largest beet / Weight of the largest beet: PCN-contaminated farmland; for Sugar content: saccharimeter
Protocol: A farmland (Fujimi, Kutchan-cho, Hokkaido) contaminated by PCNs was examined in advance.
In that farmland, about […] beets per 1 m^2 were cultivated under the conditions that the width of a ridge was 69 cm and the distance between beets was 30 cm. […] The amount sprayed was changed to three levels, 1.8, 5.5, and 9.0 (g/m^2), and each chemical agent having the above-described amount was dissolved in 5 liters of water to obtain a spraying solution. Subsequently, the beets were cultivated for 112 days and the grown beets were harvested. The weight (kg) of the largest beet, the average weight (kg) of three beets other than the largest beet, and the sugar content (%) were measured. […] The sugar content (%) was measured with a saccharimeter (MASTER-M model 2313 available from ATAGO Co., Ltd.). […]
The mixed chemical agent contained 6% by mass of coconut oil fatty acid diethanolamide and 0.6% by mass of polyethylene glycol.

[2] = test system: eggs of potato cyst nematodes; test: Accelerated hatching effect of aqueous fatty acid dialkanolamide solution; type: in vivo; details: 1000-fold diluted aqueous solution; water 5.0%
Protocol: The accelerated hatching effect of an aqueous fatty acid dialkanolamide solution for the eggs of potato cyst nematodes was measured. […] It is believed that the fatty acid dialkanolamide has a function of breaking the eggshell of PCNs and thus the eggs of PCNs are forcedly hatched.

[3] = test system: PCNs; test: PCN control at a site where a potato had been cultivated: nematode density after spraying; type: in vivo, potato cyst nematodes; details: sprayed amount 9.0 g/m^2; soil had 2000 to 5000 PCNs per 20 g
From the text: After the chemical agents were sprayed, all the cysts in 20 g of air-dried soil were gathered and the total number of eggs and second-generation larvae in the cysts was obtained.

[4] = test system: beets; test: Beet cultivation after treatments of farmland sections (2008); type: in vivo; details: for Average weight / Weight of the largest beet: sprayed once before planting; for growth promotion / enlargement of a beet (in words): results of beet cultivation of Table 8
Protocol: [table] The beets were cultivated under the conditions that the width of a ridge was 69 cm and the distance between beets was 30 cm. […] Then the beets were cultivated until Oct. 8, 2008 and harvested. After the stems and leaves of the harvested beets were removed, the weight of the beets was measured.

[5] = test system: PCN; test: PCN density in treated farmland sections (2008); type: in vivo, potato cyst nematodes
[6] = Polarity and solubility in water; type: physicochemical; details: research conducted by the inventors
From the text: Thus, the inventors of the present invention have focused on an ecological method. The ecological method is an indirect method in which the eggs of PCNs are forcedly hatched in some way, and then the hatched larvae are made to starve to death or destroyed using a typical agricultural chemical, which results in the prevention of the damage caused by the PCNs. It has been known for a long time that PCNs hatch when exposed to a substance secreted from the host plants, and there has been conducted a study for identifying a hatching-activating substance and isolating it from the secretory substance. Patent Document 1 discloses Solanoeclepin A as the hatching-activating substance.

[7] = 260 mg in 100 ml of water per single beet
[8] = 260 mg in 100 ml of water per two beets

CC(=O)N(CCO)CCO [Example 1, acetic acid diethanolamide]
Average weight of three beets other than the largest beet ([1]; sprayed amount 1.8 g/m^2, once): 1.63 kg
Weight of the largest beet ([1]; sprayed amount 1.8 g/m^2, once): 2.85 kg
Sugar content ([1]; sprayed amount 1.8 g/m^2, once): 19.80%
Average weight of three beets other than the largest beet ([1]; sprayed amount 5.5 g/m^2, once): 1.68 kg
Weight of the largest beet ([1]; sprayed amount 5.5 g/m^2, once): 2.53 kg
Sugar content ([1]; sprayed amount 5.5 g/m^2, once): 20.10%
Average weight of three beets other than the largest beet ([1]; sprayed amount 9.0 g/m^2, once): 1.40 kg
Weight of the largest beet ([1]; sprayed amount 9.0 g/m^2, once): 1.90 kg
Sugar content ([1]; sprayed amount 9.0 g/m^2, once): 19.90%

CCCCCCCCCC(=O)N(CCO)CCO [Example 4, decanoic acid diethanolamide]
hatching ratio [2]: 23.8%
Nematode density (total number of eggs and second-generation larvae in the cysts) [3]: 765 /20 g of air-dried soil
Average weight of three beets other than the largest beet ([1]; sprayed amount 1.8 g/m^2, once): 1.86 kg
Weight of the largest beet ([1]; sprayed amount 1.8 g/m^2, once): 2.20 kg
Sugar content ([1]; sprayed amount 1.8 g/m^2, once): 21.20%
Average weight of three beets other than the largest beet ([1]; sprayed amount 5.5 g/m^2, once): 1.92 kg
Weight of the largest beet ([1]; sprayed amount 5.5 g/m^2, once): 2.35 kg
Sugar content ([1]; sprayed amount 5.5 g/m^2, once): 20.00%
Average weight of three beets other than the largest beet ([1]; sprayed amount 9.0 g/m^2, once): 1.62 kg
Weight of the largest beet ([1]; sprayed amount 9.0 g/m^2, once): 2.15 kg
Sugar content ([1]; sprayed amount 9.0 g/m^2, once): 23.40%

CCCCCCCCCCCCCCCCCC(=O)N(CCO)CCO [Example 7, octadecanoic acid diethanolamide]
Nematode density (total number of eggs and second-generation larvae in the cysts) [3]: 540 /20 g of air-dried soil
Average weight of three beets other than the largest beet ([1]; sprayed amount 1.8 g/m^2, once): 1.48 kg
Weight of the largest beet ([1]; sprayed amount 1.8 g/m^2, once): 2.05 kg
Sugar content ([1]; sprayed amount 1.8 g/m^2, once): 20.20%
Average weight of three beets other than the largest beet ([1]; sprayed amount 5.5 g/m^2, once): 1.65 kg
Weight of the largest beet ([1]; sprayed amount 5.5 g/m^2, once): 1.95 kg
Sugar content ([1]; sprayed amount 5.5 g/m^2, once): 20.20%
Average weight of three beets other than the largest beet ([1]; sprayed amount 9.0 g/m^2, once): 1.85 kg
Weight of the largest beet ([1]; sprayed amount 9.0 g/m^2, once): 2.30 kg
Sugar content ([1]; sprayed amount 9.0 g/m^2, once): 21.00%

CCCCCC(=O)N(CCO)CCO [Example 15, hexanoic acid diethanolamide]
Average weight [4, 7]: 1.55 kg
Weight of the largest beet [4, 7]: 2.10 kg
growth promotion / enlargement of a beet (in words) [4]: achieves the enlargement of a beet
PCN density ([5]; 260 mg in 100 ml of water sprayed around the area of a single beet): 600 /20 g of air-dried soil
effect on PCN density (in words) ([5]; section 2-1 compared with section 1-1): decreases PCN density

COC1=C2C(C)(C)[C@H]3O[C@@]2(CC3=O)[C@@H](O)C2=C(C1=O)[C@@]13C(=O)[C@@]([C@@H]4C[C@H]4C(=O)O)(C[C@@H]1O)[C@]3(C)CC2 [Solanoeclepin A]
solubility in water [6]: poor solubility in water

CC(=O)NCCO [compound 13, acetic acid monoethanolamide]
Average weight [4, 8]: 1.40 kg
Weight of the largest beet [4, 8]: 1.40 kg
growth promotion / enlargement of a beet (in words) [4]: poor effect of growth promotion

CCCCCCCCCC(=O)NCCO [compound 14, decanoic acid monoethanolamide]
Average weight [4, 8]: 1.10 kg
Weight of the largest beet [4, 8]: 1.80 kg
growth promotion / enlargement of a beet (in words) [4]: poor effect of growth promotion
